Laboratory results as given in ChEMBL document CHEMBL1201862, “PubChem BioAssay data set” (2004).
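Grown in 96-well plates, cells were treated for 48 hours with each compound at five concentrations. Insufficient inhibition: endpoint recorded as highest concentration tested. GI50: concentration for 50% inhibition of growth.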 Active and inactive are the calls of the source. No stated cut-off is given here; in the data, active = GI50 up to about 1.1 µM and inactive = higher.

What was measured:
Test in all cases: growth of human tumour cells (NCI), 48 h
OVCAR-8 = test system: OVCAR-8
Malme-3M = test system: Malme-3M
IGROV-1 = test system: IGROV-1
SF-268 = test system: SF-268
NCI-H226 = test system: NCI-H226
SNB-19 = test system: SNB-19
SK-MEL-2 = test system: SK-MEL-2
KM12 = test system: KM12
SK-OV-3 = test system: SK-OV-3
UACC-257 = test system: UACC-257
UACC-62 = test system: UACC-62
HOP-62 = test system: HOP-62
HCT-116 = test system: HCT-116
SK-MEL-5 = test system: SK-MEL-5
U-251 = test system: U-251
OVCAR-5 = test system: OVCAR-5
SW-620 = test system: SW-620
SK-MEL-28 = test system: SK-MEL-28
NCI-H460 = test system: NCI-H460
RPMI-8226 = test system: RPMI-8226

Row | Structure (SMILES) | GI50 (OVCAR-8) | GI50 (Malme-3M) | GI50 (IGROV-1) | GI50 (SF-268) | GI50 (NCI-H226) | GI50 (SNB-19) | GI50 (SK-MEL-2) | GI50 (KM12) | GI50 (SK-OV-3) | GI50 (UACC-257) | GI50 (UACC-62) | GI50 (HOP-62) | GI50 (HCT-116) | GI50 (SK-MEL-5) | GI50 (U-251) | GI50 (OVCAR-5) | GI50 (SW-620) | GI50 (SK-MEL-28) | GI50 (NCI-H460) | GI50 (RPMI-8226)
1 | COc1cc(/C=C/C2=C(C#N)C(=O)OC2(C)C)ccc1O | 51.8 µM (inactive) | > 100 µM (inactive) | > 100 µM (inactive) | 46.6 µM (inactive) | 37.3 µM (inactive) | > 100 µM (inactive) | > 100 µM (inactive) | 30.9 µM (inactive) | > 100 µM (inactive) | > 100 µM (inactive) | > 100 µM (inactive) | 43.6 µM (inactive) | 37.9 µM (inactive) | > 100 µM (inactive) | 17.4 µM (inactive) | > 100 µM (inactive) | 35.3 µM (inactive) | > 100 µM (inactive) | 38.9 µM (inactive) | 20.4 µM (inactive)
2 | O=C1Cc2c(-c3ccccc3)cc(-c3cccc(Cl)c3)nc2-c2ccccc2N1 | 1.61 µM (inactive) | 3.82 µM (inactive) | 1.2 µM (inactive) | 2.73 µM (inactive) | 4.63 µM (inactive) | 1.64 µM (inactive) | 8 µM (inactive) | 5.02 µM (inactive) | 1.86 µM (inactive) | 6.32 µM (inactive) | 3.03 µM (inactive) | 1.38 µM (inactive) | 1.6 µM (inactive) | 9.91 µM (inactive) | 1.75 µM (inactive) | 6.19 µM (inactive) | 3.91 µM (inactive) | 3.9 µM (inactive) | 1.2 µM (inactive) | 15.7 µM (inactive)
3 | O=c1cnn(C2OC(CO)C(O)C2O)c(=S)[nH]1 (stereo not given) | 10.6 µM (inactive) | > 77.8 µM (inactive) | 28.7 µM (inactive) | 11.1 µM (inactive) | > 100 µM (inactive) | 43.1 µM (inactive) | 20.4 µM (inactive) | 22.3 µM (inactive) | > 100 µM (inactive) | > 100 µM (inactive) | 19.4 µM (inactive) | > 63.7 µM (inactive) | 1.67 µM (inactive) | > 55.5 µM (inactive) | 3.03 µM (inactive) | > 78.3 µM (inactive) | 5.21 µM (inactive) | > 100 µM (inactive) | 0.316 µM (active) | 0.993 µM (active)
4 | C#CC[C@@]12CC(=O)C[C@@H]1CCC1(C2)OCCO1.C#CC[C@]12CC(=O)CC[C@H]1CC(=O)C2 | > 100 µM (inactive) | > 100 µM (inactive) | > 100 µM (inactive) | > 100 µM (inactive) | > 100 µM (inactive) | > 100 µM (inactive) | > 100 µM (inactive) | > 100 µM (inactive) | > 100 µM (inactive) | 90.8 µM (inactive) | 95.5 µM (inactive) | > 100 µM (inactive) | > 100 µM (inactive) | > 100 µM (inactive) | > 100 µM (inactive) | > 100 µM (inactive) | > 100 µM (inactive) | > 100 µM (inactive) | > 100 µM (inactive) | > 100 µM (inactive)
5 | ClCc1nnc2n1-c1ccc(Cl)cc1SC2 | 4.02 µM (inactive) | 3.88 µM (inactive) | 2.94 µM (inactive) | 2.87 µM (inactive) | 1.94 µM (inactive) | 13 µM (inactive) | 2.81 µM (inactive) | 4.35 µM (inactive) | 3.56 µM (inactive) | 2.16 µM (inactive) | 2.69 µM (inactive) | 6.25 µM (inactive) | 3.1 µM (inactive) | 2.62 µM (inactive) | 6.59 µM (inactive) | 12.2 µM (inactive) | 4.55 µM (inactive) | 4.74 µM (inactive) | 3.66 µM (inactive) | 3.3 µM (inactive)
6 | CN(C(=O)c1ccc(OCCCC(=O)O)c(Cl)c1Cl)C1CCCC1 | > 100 µM (inactive) | > 100 µM (inactive) | > 100 µM (inactive) | > 96.4 µM (inactive) | 83.8 µM (inactive) | > 100 µM (inactive) | > 79.8 µM (inactive) | > 100 µM (inactive) | > 100 µM (inactive) | > 100 µM (inactive) | > 100 µM (inactive) | > 100 µM (inactive) | > 62.8 µM (inactive) | > 100 µM (inactive) | > 100 µM (inactive) | > 100 µM (inactive) | > 100 µM (inactive) | > 100 µM (inactive) | > 95.3 µM (inactive) | 98.6 µM (inactive)
7 | CSc1nc2c(ncn2C2OCC(O)C(O)C2O)c(=O)n1C (stereo not given) | > 100 µM (inactive) | > 100 µM (inactive) | > 100 µM (inactive) | > 100 µM (inactive) | > 100 µM (inactive) | > 100 µM (inactive) | > 100 µM (inactive) | > 100 µM (inactive) | > 100 µM (inactive) | > 100 µM (inactive) | > 100 µM (inactive) | > 100 µM (inactive) | > 100 µM (inactive) | > 100 µM (inactive) | > 100 µM (inactive) | > 100 µM (inactive) | > 100 µM (inactive) | > 100 µM (inactive) | > 100 µM (inactive) | > 100 µM (inactive)
8 | Nc1nnc(N)n1NC(=O)C(=O)Nc1ccc([N+](=O)[O-])cc1 | > 100 µM (inactive) | > 100 µM (inactive) | > 100 µM (inactive) | > 100 µM (inactive) | > 100 µM (inactive) | > 100 µM (inactive) | > 100 µM (inactive) | > 100 µM (inactive) | > 100 µM (inactive) | > 100 µM (inactive) | 49.1 µM (inactive) | > 100 µM (inactive) | > 100 µM (inactive) | > 100 µM (inactive) | > 100 µM (inactive) | > 100 µM (inactive) | > 100 µM (inactive) | > 100 µM (inactive) | > 100 µM (inactive) | > 100 µM (inactive)
9 | C/C([O-])=C(/c1nc(-c2ccc([N+](=O)[O-])o2)no1)[n+]1cc(C)ccc1C | 19.8 µM (inactive) | 14.3 µM (inactive) | 29 µM (inactive) | 20.3 µM (inactive) | 15.7 µM (inactive) | 26.7 µM (inactive) | 7.94 µM (inactive) | 5.82 µM (inactive) | 35.6 µM (inactive) | 11.9 µM (inactive) | 7.21 µM (inactive) | 22.7 µM (inactive) | 6.25 µM (inactive) | 10.6 µM (inactive) | 8.11 µM (inactive) | 21.8 µM (inactive) | 5.31 µM (inactive) | 12.7 µM (inactive) | 4.62 µM (inactive) | 15.3 µM (inactive)
10 | COc1ccc(Sc2ccccc2N)cc1 | 60.5 µM (inactive) | 57.8 µM (inactive) | 65.2 µM (inactive) | 43.1 µM (inactive) | 22.7 µM (inactive) | > 100 µM (inactive) | > 100 µM (inactive) | 41.3 µM (inactive) | > 100 µM (inactive) | 38.5 µM (inactive) | 71.4 µM (inactive) | 65.9 µM (inactive) | 49 µM (inactive) | 22.3 µM (inactive) | 19 µM (inactive) | 46.5 µM (inactive) | 57.1 µM (inactive) | 43.4 µM (inactive) | 52.5 µM (inactive) | 45.9 µM (inactive)
11 | Cc1c(N=NN(C)C)cc[n+]([O-])c1C | > 100 µM (inactive) | > 100 µM (inactive) | > 100 µM (inactive) | > 100 µM (inactive) | > 100 µM (inactive) | > 100 µM (inactive) | > 100 µM (inactive) | > 100 µM (inactive) | > 100 µM (inactive) | > 100 µM (inactive) | > 100 µM (inactive) | > 100 µM (inactive) | > 100 µM (inactive) | > 100 µM (inactive) | > 100 µM (inactive) | > 100 µM (inactive) | > 100 µM (inactive) | > 100 µM (inactive) | > 100 µM (inactive) | > 100 µM (inactive)
12 | COC(=O)C1=COC2OC3/C(=C\c4ccc(O)c(OC)c4)C(=O)OC34C=CC1C24 (stereo not given) | 18.9 µM (inactive) | 16.5 µM (inactive) | 24.4 µM (inactive) | 19.5 µM (inactive) | 14.4 µM (inactive) | 19.6 µM (inactive) | 11.3 µM (inactive) | 13.8 µM (inactive) | 17 µM (inactive) | 15.9 µM (inactive) | 19.6 µM (inactive) | 24.5 µM (inactive) | 19 µM (inactive) | 35.2 µM (inactive) | 15.2 µM (inactive) | 18.3 µM (inactive) | 20 µM (inactive) | 18.6 µM (inactive) | 17.9 µM (inactive) | 26.1 µM (inactive)
13 | C=C/C(C)=C/[C@H](C)C(=O)C[C@H](O)CC1CC(=O)NC(=O)C1 | 24.2 µM (inactive) | 16 µM (inactive) | 19.9 µM (inactive) | 36 µM (inactive) | 41 µM (inactive) | 18.7 µM (inactive) | 28.9 µM (inactive) | 32.7 µM (inactive) | > 41.9 µM (inactive) | 30.1 µM (inactive) | 37.2 µM (inactive) | 19.2 µM (inactive) | 40.3 µM (inactive) | 34.5 µM (inactive) | 34.5 µM (inactive) | 58.9 µM (inactive) | 31.5 µM (inactive) | 28.6 µM (inactive) | 37.7 µM (inactive) | 31.8 µM (inactive)
